This note sets out measurements from patent EP0153203A1, “C10-C20-Branched-chain fatty acids useful as medicaments and the preparation thereof” (PIERRE FABRE MEDICAMENT, priority 1984, dated 1985).

The assay has as its system oedème généralisé au dextran. Nature of the assay: generalized dextran oedema test (anti-inflammatory activity, oral, rat). The assay is classed as in vivo.

Consider `CCC(C)CCCCCCCCCC(=O)O` (centres unmarked) [acide antéisomyristique, acide méthyl-11 tridécanoique], for which the “activité anti-inflammatoire (même type)” value (administration par voie orale chez le rat, concentration and vehicle not stated) is “Le même type d'activité anti-inflammatoire a été mis en évidence”.

For `CC(C)CCCCCCCCCCC(=O)O` [acide isomyristique, acide méthyl-12 tridécanoTque], the “propriétés anti-inflammatoires (test de l'oedème généralisé au dextran)” value (solution à 1 % dans l'huile d'arachide, voie orale chez le rat, by action on the vascular phase and decrease of platelet aggregation) is “propriétés anti-inflammatoires marquées”.
